Data on two compounds can be found in patent US9975849B1, “Gossypol l-arginine schiff base compound with antitumor activities and a method of preparing the same” (SHAANXI PANLONG PHARMACEUTICAL GROUP LIMITED BY SHARE LTD., priority 2017, dated 2018).

Where two headings read alike, the source gives them in different places.

Holding throughout (type): cell-based
Test [1] concerns human hepatoma cells (HepG2). Briefly: MTT tumor cell proliferation inhibition test, HepG2. The following applies: for IC50: Homo sapiens, read-out: Half Inhibitory Concentration IC50 HepG2. As for the experimental part: (§1) The compounds of the present invention were subjected to tumor cell proliferation inhibition test, and conventional MTT method was used.
(§2) Cell lines: human hepatoma cells (HepG2), human lung cancer cells (A-549), human gastric cancer cells (SGC-7901). The culture medium was DMEM+15% NBS+double antibody.
(§3) Sample solution preparation: after dissolving with DMSO (Merck), PBS (-) was added to obtain 100 μmol/L solution or homogeneous suspension. The solution was diluted with PBS (-) in DMSO to a final concentration of 0.1, 1, 10, 20, 40, 60, 80, 100 μmol/L.
(§4) Anti-uterine fibroids drug gossypol was used as control solution, prepared under the same condition.
(§5) Cell culture: adherent growth Tumor cells were cultured in 1640 medium containing 10% inactivated neonatal bovine serum and penicillin, streptomycin (1 million U/L), placed in carbon dioxide incubator at 37° C., 5% CO2, and saturated humidity. Cells were treated serially passaged 2-3 times. The first culture was washed with PBS 2 times, and digested with trypsin. Fresh culture medium was added evenly, cells were adjusted to a appropriate concentration and transferred into a new culture flask. […]
(§6) Experimental Principle: Living cells mitochondria in the dehydrogenase can reduce yellow MTT to water-insoluble blue-violet product MT (MTT formazan), deposited in the cells. […] DMSO can dissolve blue violet crystals, and the color depth is proportional to the amount contained, so the absorbance measured by the microplate reader can reflect the cell viability.
(§7) Methods: The exponential phase cells were digested and counted and seeded in 96-well plates at a density of 2×10^4/mL at 100 μl per well. […] After 48 hours, the supernatant was discarded, and 100 μl of MTT ((2-(4,5-dimethyl-2-thiazolyl)-3,5-diphenyl-2H-[…]) (1 mg/mL) was added to each well. After another 4 hours, the supernatant was discarded, and 100 μl of DMSO was added to each well. After mixing, the absorbance was measured at 570 nm using a microplate reader. An IC50 calculation software was used to determine the half inhibitory concentration (IC50).

Test [2] deals with human gastric cancer cells (SGC-7901). Briefly: MTT tumor cell proliferation inhibition test, SGC-7901. Conditions: for IC50: Homo sapiens, read-out: Half Inhibitory Concentration IC50 SGC-7901. As for the experimental part: as §1, §2, §3, §4
Cell culture: adherent growth Tumor cells were cultured in 1640 medium containing 10% inactivated neonatal bovine serum and penicillin, streptomycin (1 million U/L), placed in carbon dioxide incubator at 37° C., 5% CO2, and saturated humidity. Cells were treated serially passaged 2-3 times. The first culture was washed with PBS 2 times, and digested with trypsin. Fresh culture medium was added evenly, cells were adjusted to a appropriate concentration and transferred into a new culture flask. Cell in an exponential phase were chosen for the tests.
MTT Assay for Cell Viability and IC50 Determination:
Experimental Principle: Living cells mitochondria in the dehydrogenase can reduce yellow MTT to water-insoluble blue-violet product MT (MTT formazan), deposited in the cells. The amount of production is proportional to the number of living cells. […] DMSO can dissolve blue violet crystals, and the color depth is proportional to the amount contained, so the absorbance measured by the microplate reader can reflect the cell viability.
Methods: The exponential phase cells were digested and counted and seeded in 96-well plates at a density of 2×10^4/mL at 100 μl per well. After 24 hours of incubation, the cells to be tested were treated with 0.1, 1, 10, 20, 40, 60, 80, 100 μmol/L of the compounds. Each experimental group had 5 wells in each concentration, and the culture medium containing 0.4% DMSO was used as control. After 48 hours, the supernatant was discarded, and 100 μl of MTT ((2-(4,5-dimethyl-2-thiazolyl)-3,5-diphenyl-2H-[…]) (1 mg/mL) was added to each well. After another 4 hours, the supernatant was discarded, and 100 μl of DMSO was added to each well. After mixing, the absorbance was measured at 570 nm using a microplate reader. An IC50 calculation software was used to determine the half inhibitory concentration (IC50).

Test [3] relates to human lung cancer cells (A-549). The test can be described thus: MTT tumor cell proliferation inhibition test, A-549. As for the experimental part:
as §1, §2, §3, §4, §5, §6, §7

In the case of `Cc1cc2c(C(C)C)c(O)c(O)c(C=O)c2c(O)c1-c1c(C)cc2c(C(C)C)c(O)c(O)c(C=O)c2c1O` [Gossypol, gossypol], the IC50 is 8.29 ± 0.28 µM in test [1] (HepG2, 48 h) and 18.2 ± 0.37 µM in test [2] (SGC-7901, 48 h).
On to `Cc1cc2c(C(C)C)c(O)c(O)c(/C=N\C(=N)NCCC[C@H](N)C(=O)O)c2c(O)c1-c1c(C)cc2c(C(C)C)c(O)c(O)c(/C=N/C(=N)NCCC[C@H](N)C(=O)O)c2c1O` [Gossypol L-arginine Schiff base compound, gossypol L-arginine Schiff base compound], for which the “antitumor activities (in words)” value in test [1] (HepG2, one of the three cell lines tested) is listed as “excellent antitumor activities”; in test [3] (A549, one of the three cell lines tested), “excellent antitumor activities”; in test [2] (SGC-7901, one of the three cell lines tested), “excellent antitumor activities”. For the same compound, the IC50 in test [1] (MTT, 48 hours treatment, HepG2) stood at 11.7 ± 0.32 µM; in test [3] (Homo sapiens, MTT, 48 hours treatment, A549, read-out: Half Inhibitory Concentration IC50 A549), 12.3 ± 0.69 µM; in test [2] (MTT, 48 hours treatment, SGC-7901), 9.37 ± 0.36 µM. Also, the “antitumor activities compared with gossypol” value in test [3] (against A549) and in test [2] (against SCG-7901) was “better antitumor activities than gossypol” in each case.
